Common to all, as to experiment: cells
Assay [1] has as its system MV4-11. The following applies: Homo sapiens, MV4-11, 72 h.
Description: Antiproliferative activity against human MV4-11 cells harboring FLT3-ITD mutant assessed as inhibition of cell growth incubated for 3 days by MTT assay
Assay [2] has as its system MV4-11. The conditions noted are these: Homo sapiens, MV4-11, 72 h. This is another data set of the same source.
Assay [3] relates to MV4-11. The conditions noted are these: Homo sapiens, MV4-11, 72 h, read-out: INH.

A word on the IC50: it is the concentration needed to halve the response being measured. Lower therefore signals greater potency in that assay. Consider `CN1CCN(c2ccc(/C=C/c3n[nH]c4cc(-c5ccnc(N)c5)ccc34)cc2)CC1`, for which the values for the IC50 in assay [1] and in assay [2] were 6.4 nM and 2800 nM, respectively.

For the compound `Nc1cc(-c2ccc3c(/C=C/c4ccc(CN5CCOCC5)c(Cl)c4)n[nH]c3c2)ccn1`, the concentration for half-maximal inhibition (IC50) in assay [1] came to 10.4 nM; in assay [2] it was 800 nM.

In the case of `Nc1cc(-c2ccc3c(/C=C/c4ccc(C(=O)N5CCOCC5)cc4)n[nH]c3c2)ccn1`, the results for the half-inhibitory concentration (IC50) in assay [1] and in assay [2] were 20.3 nM and 2300 nM, respectively.

On to `CN1CCN(Cc2ccc(/C=C/c3n[nH]c4cc(-c5ccnc(N)c5)ccc34)cc2)CC1`, for which the results for the 50% inhibitory concentration (IC50) in assay [1] and in assay [2] were 16.5 nM and 1600 nM, respectively.

As to `Nc1cc(-c2ccc3c(/C=C/c4ccc(CN5CCOCC5)cc4)n[nH]c3c2)ccn1`, the figures for the IC50 in assay [1] and in assay [2] were 11.4 nM and 1100 nM, respectively.

As for `Nc1cc(-c2ccc3c(-c4ccc(CN5CCOCC5)cc4)n[nH]c3c2)ccn1`, the IC50 in assay [1] was 87.7 nM; in assay [2], > 10000 nM.

`Nc1ccc(-c2ccc3c(/C=C/c4ccc(C(=O)N5CCNCC5)cc4)n[nH]c3c2)cn1`: the IC50 in assay [1] is 27.1 nM; in assay [2], > 10000 nM.

Regarding `CCn1cc(-c2n[nH]c3cc(-c4ccnc(N)c4)ccc23)cn1`, the IC50 in assay [1] was 163 nM; in assay [2], > 10000 nM.

Turning to `Nc1cc(-c2ccc3c(-c4cnn(CCO)c4)n[nH]c3c2)ccn1`, the IC50 in assay [1] was 222 nM; in assay [2] it was > 10000 nM.

In the case of `Nc1cc(-c2ccc3c(/C=C/c4ccncc4)n[nH]c3c2)ccn1`, the results for the concentration for half-maximal inhibition (IC50) in assay [1] and in assay [2] were 18.4 nM and 6900 nM, respectively.

`CN1CCN(Cc2ccc(-c3n[nH]c4cc(-c5ccnc(N)c5)ccc34)cc2)CC1`: the IC50 in assay [1] was 156 nM; in assay [2], > 10000 nM.

For `O=C(c1ccc(/C=C/c2n[nH]c3ccc(-c4cccnc4)cc23)cc1)N1CCNCC1`, the IC50 was 15.1 nM in assay [1] and > 10000 nM in assay [2].

Regarding `O=C(c1ccc(/C=C/c2n[nH]c3cc(-c4ccnc5[nH]ccc45)ccc23)cc1)N1CCNCC1`, the values for the IC50 in assay [1] and in assay [2] were 18.7 nM and 5700 nM, respectively.

With `O=C(c1ccc(/C=C/c2n[nH]c3cc(-c4ccncc4)ccc23)cc1)N1CCNCC1`, the values for the half-maximal inhibitory concentration (IC50) in assay [1] and in assay [2] were 12.9 nM and 3400 nM, respectively.

Regarding `Nc1cc(-c2ccc3c(/C=C/c4cccnc4)n[nH]c3c2)ccn1`, the 50% inhibitory concentration (IC50) in assay [1] came out at 29.5 nM; in assay [2] it was 2300 nM.

In the case of `O=C(c1ccc(/C=C/c2n[nH]c3cc(-c4ccccc4)ccc23)cc1)N1CCNCC1`, the half-inhibitory concentration (IC50) was determined as 22.5 nM in assay [1] and 6900 nM in assay [2].

For `COc1cc(/C=C/c2n[nH]c3cc(-c4ccnc(N)c4)ccc23)cc(OC)c1`, the half-inhibitory concentration (IC50) in assay [1] was 354 nM; in assay [2], > 10000 nM.

Take `Nc1cc(-c2ccc3c(CCc4ccc(CN5CCOCC5)c(F)c4)n[nH]c3c2)ccn1`: the concentration for half-maximal inhibition (IC50) was 219 nM in assay [1] and > 10000 nM in assay [2].

For `Nc1cc(-c2ccc3c(/C=C/c4ccc(N5CCOCC5)cc4)n[nH]c3c2)ccn1`, the half-maximal inhibitory concentration (IC50) in assay [1] worked out at 9 nM; in assay [2], 3400 nM.

For the compound `O=C(c1ccc(/C=C/c2n[nH]c3ccc(-c4ccncc4)cc23)cc1)N1CCNCC1`, the half-inhibitory concentration (IC50) in assay [1] was 58.7 nM; in assay [2] it was > 10000 nM.

With `Nc1cc(-c2cnc3c(/C=C/c4ccc(CN5CCOCC5)c(F)c4)n[nH]c3c2)ccn1`, the half-maximal inhibitory concentration (IC50) was determined as 25.6 nM in assay [1] and 900 nM in assay [2].

Consider `Nc1cc(-c2ccc3c(/C=C/c4ccccc4)n[nH]c3c2)ccn1`, for which the IC50 in assay [1] turned out to be 39.8 nM; in assay [2] it was 6100 nM.

For `CN1CCN(c2ccc(-c3n[nH]c4cc(-c5ccnc(N)c5)ccc34)cc2)CC1`, the figures for the IC50 in assay [1] and in assay [2] were 54.9 nM and > 10000 nM, respectively.

For the compound `Nc1cc(-c2ccc3c(/C=C/c4ccc(C(=O)N5CCNCC5)cc4)n[nH]c3c2)ccn1`, the IC50 in assay [1] amounted to 6.2 nM; in assay [2] it was 1800 nM.

As to `Nc1nccc(-c2ccc3c(/C=C/c4ccc(CN5CCOCC5)c(F)c4)n[nH]c3c2)n1`, the half-inhibitory concentration (IC50) in assay [1] worked out at 10.7 nM; in assay [2] it was 600 nM.

For `CCc1nc(C(N)=O)c(Nc2ccc(N3CCC(N4CCN(C)CC4)CC3)c(OC)c2)nc1NC1CCOCC1` [GILTERITINIB], the inhibition at 10 µM in assay [3] was > 70%.

As to `O=C(c1ccc(/C=C/c2n[nH]c3cc(-c4cccnc4)ccc23)cc1)N1CCNCC1`, the half-maximal inhibitory concentration (IC50) in assay [1] is 16.5 nM; in assay [2], > 10000 nM.

Consider `Nc1cc(-c2ccc3c(-c4ccc(S(=O)(=O)N5CCOCC5)cc4)n[nH]c3c2)ccn1`, for which the IC50 in assay [1] is 197 nM; in assay [2], > 10000 nM.

In the case of `Nc1cc(-c2ccc3c(-c4ccc(N5CCOCC5)cc4)n[nH]c3c2)ccn1`, the IC50 is 44.5 nM in assay [1] and > 10000 nM in assay [2].

With `O=C(c1ccc(/C=C/c2n[nH]c3ccc(-c4ccccc4)cc23)cc1)N1CCNCC1`, the IC50 in assay [1] is 55.3 nM; in assay [2] it was > 10000 nM.

Regarding `O=C(Cc1ccc(-c2ccc(OCCN3CCOCC3)cc2)cn1)NCc1ccccc1` [TIRBANIBULIN], in assay [3], the inhibition at 10 µM is > 70%.

(Values after ChEMBL document CHEMBL6182915, “Discovery of a Potent FLT3 Inhibitor (E)-4-(3-(3-Fluoro-4-(morpholinomethyl)styryl)-1H-indazol-6-yl)pyridin-2-amine for the Treatment of Acute Myeloid Leukemia with Multiple FLT3 Mutations” (J Med Chem, 2025).)
